Laboratory results published in patent US4520112A, “Assay method for organic calcium antagonist drugs and a kit for such an assay” (The Johns Hopkins University, priority 1983, dated 1985).

Tested on: calcium channel receptor (bovine cerebral cortex membranes)
Assay: 3H-nitrendipine binding to cerebral cortex membranes (calcium channel receptor)
Details: drug added to human plasma

SMILES | effect on 3H-nitrendipine binding
COc1ccc([C@@H]2Sc3ccccc3N(CCN(C)C)C(=O)[C@@H]2OC(C)=O)cc1 [diltiazem] | reversal of tiapamil induced reduction
COCCOC(=O)C1=C(C)NC(C)=C(C(=O)OC(C)C)C1c1cccc([N+](=O)[O-])c1 (stereo not shown) [Nimodipine, nimodipine] | inhibition
CC(Cc1ccccc1)NCCC(c1ccccc1)c1ccccc1 (stereo not shown) [prenylamine] | inhibition
COc1ccc(CCN(C)CCCC2(c3ccc(OC)c(OC)c3)S(=O)(=O)CCCS2(=O)=O)cc1OC [tiapamil] | reduction

Tested on: calcium antagonist receptors
Assay: not given
Details: literature reports; cited from earlier work

SMILES | effect on 3H-nitrendipine binding
COc1ccc([C@@H]2Sc3ccccc3N(CCN(C)C)C(=O)[C@@H]2OC(C)=O)cc1 [diltiazem] | interact allosterically with the same receptor site and also reduce ^3 H-nitrendipine binding
COC(=O)C1=C(C)NC(C)=C(C(=O)OC)C1c1ccccc1[N+](=O)[O-] [nifedipine] | compete directly
COc1ccc(CCN(C)CCCC(C#N)(c2ccc(OC)c(OC)c2)C(C)C)cc1OC (stereo not shown) [verapamil] | interact allosterically with the same receptor site and also reduce ^3 H-nitrendipine binding
